This experiment has as its target T1, recombinant human secreted phospholipase A2 (Homo sapiens, UniProt P14555).
T1 sequence (P14555 21-144): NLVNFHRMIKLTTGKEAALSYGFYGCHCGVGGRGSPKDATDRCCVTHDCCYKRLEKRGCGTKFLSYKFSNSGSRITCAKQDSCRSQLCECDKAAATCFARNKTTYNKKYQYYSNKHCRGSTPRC
Description: sPLA2 Chromogenic Assay (Assay 1). The class given is biochemical. As to conditions: diheptanoyl thio-PC substrate, pH 7.5, 40° C. for 30 minutes, absorbance at 405 nanometers.
Description: The following chromogenic assay procedure was used to identify and evaluate inhibitors of recombinant human secreted phospholipase A2. The assay described herein has been adapted for high volume screening using 96 well microtiter plates.
A measured volume of racemic dipheptanoyl thio PC supplied in chloroform at a concentration of 100 mg/ml is taken to dryness and redissolved in 10 millimolar TRITON X-100™ nonionic detergent aqueous solution. Reaction Buffer is added to the solution, then DTNB to give the Reaction Mixture.
The reaction mixture thus obtained contains 1 mM diheptanoyl thio-PC substrate, 0.29 mm Triton X-100™ detergent, and 0.12 mm DTMB in a buffered aqueous solution at pH 7.5.
1. Add 0.2 ml reaction mixture to all wells;
2. Add 10 ul test compound (or solvent blank) to appropriate wells, mix 20 seconds;
3. Add 50 nanograms of sPLA2 (10 microliters) to appropriate wells;
4. Incubate plate at 40° C. for 30 minutes;
All compounds were tested in triplicate. […] Each sample was titrated in triplicate and result values were averaged for plotting and calculation of IC50 values.
The IC50 is the midpoint of a concentration-inhibition curve. With “2-(3-(Biphenyl-2-yl-methyl)-8-(carboxymethyloxy)-2-ethylindolizine-1-yl)glyoxylamide diglycolate [Compound 59j]”, the half-inhibitory concentration (IC50) worked out at 53 nM.

Take `CCc1c(Cc2ccccc2)c2ccc(OCCCC(=O)O)cn2c1C(=O)C(N)=O` [Compound 11, (1-Benzyl-6-(3-carboxypropyloxy)-2-ethylindolizin-3-yl)glyoxylamide]: the IC50 turned out to be 1100 nM.

Take `CCc1c(CC(N)=O)c2c(O)cccn2c1Cc1ccccc1-c1ccccc1` [Compound 20x, 2-(2-Ethyl-8-hydroxy-3-(o-phenylbenzyl)-indolizin-1-yl)acetamide]: the IC50 was 840 nM.

Regarding `CCc1c(CC(N)=O)c2c(OCC(=O)OCc3ccccc3)cccn2c1Cc1ccccc1-c1ccccc1` [Compound 21x, 2-(8-(Benzyloxycarbonylmethyloxy)-2-ethyl-3-(o-phenylbenzyl)indolizin-1-yl)acetamide], the IC50 worked out at 140 nM.

With `CCc1c(CC(N)=O)c2c(OCC(=O)O)cccn2c1Cc1ccccc1-c1ccccc1` [Compound 22x, 2-(8-(Carboxymethyloxy)-2-ethyl-3-(o-phenylbenzyl)indolizin-1-yl)acetamide], the IC50 was determined as 14 nM.

`CCc1c(CC(N)=O)c2c(OCC(=O)O)cccn2c1Cc1cccc(Cl)c1` [Compound 22y, 2-(8-(Carboxymethyloxy)-3-(m-chlorobenzyl)-2-ethylindolizin-1-yl)acetamide]: the IC50 amounted to 15 nM.

Turning to `CCc1c(C(=O)C(N)=O)c2c(OCC(=O)O)cccn2c1Cc1ccccc1` [Compound 40a, (3-Benzyl-8-(carboxymethyloxy)-2-ethylindolizin-1-yl)glyoxylamide], the IC50 was determined as 8 nM.

For the molecule `CCc1c(C(=O)C(=O)NC)c2c(OCC(=O)O)cccn2c1Cc1ccccc1` [Compound 40b, (3-Benzyl-8-(carboxymethyloxy)-2-ethylindolizin-1-yl)glyoxyl-N-methylamide, reference compound], the IC50 was more than 50000 nM.

Take `CCc1c(C(=O)C(=O)N(C)C)c2c(OCC(=O)O)cccn2c1Cc1ccccc1` [Compound 40c, (3-Benzyl-8-(carboxymethyloxy)-2-ethylindolizin-1-yl)glyoxyl-N,N-dimethylamide, reference compound]: the IC50 was more than 50000 nM.

For `Cc1c(C(=O)C(N)=O)c2c(OCC(=O)O)cccn2c1Cc1ccccc1` [Compound 40g, (3-Benzyl-8-(carboxymethyloxy)-2-methylindolizin-1-yl)glyoxylamide], the IC50 is 8 nM.

`CCc1c(C(=O)C(N)=O)c2c(OCC(=O)OC)cccn2c1Cc1cccs1` [Compound 51k]: the IC50 is 220 nM.

With `CCc1c(C(=O)C(N)=O)c2c(OCC(=O)O)cccn2c1CC1CCCCC1` [Compound 52b, 2-(8-Carboxymethyloxy-3-cyclohexylmethyl-2-ethylindolizin-1-yl)glyoxylamide], the IC50 came out at 21 nM.

Take `CCc1c(C(=O)C(N)=O)c2c(OCC(=O)O)cccn2c1CC1CCCCCC1` [Compound 52d, 2-(8-Carboxymethyloxy-3-cycloheptylmethyl-2-ethylindolizin-1-yl)glyoxylamide]: the IC50 stood at 23 nM.

Turning to `CCCCCc1c(CC)c(C(=O)C(N)=O)c2c(OCC(=O)O)cccn12` [Compound 52e, 2-(8-Carboxymethyloxy-2-ethyl-3-pentylindolizin-1-yl)glyoxylamide], the IC50 turned out to be 62 nM.

Regarding `CCc1c(C(=O)C(N)=O)c2c(OCC(=O)O)cccn2c1CCc1ccccc1` [Compound 52i, 2-(8-(Carboxymethyoxy)-2-ethyl-3-(2-phenylethyl)indolizin-1-yl)glyoxylamide], the IC50 was found to be 51 nM.

As for `CCc1c(C(=O)C(N)=O)c2c(OCC(=O)O)cccn2c1Cc1ccccc1Cc1ccccc1` [Compound 52j, 2-(8-(Carboxymethyloxy)-3-o-benzylbenzyl-2-ethylindolizin-1-yl)glyoxylamide], the IC50 was 6 nM.

Regarding `CCc1c(C(=O)C(N)=O)c2c(OCC(=O)O)cccn2c1Cc1cccs1` [Compound 52k, 2-(8-(Carboxymethyloxy)-2-ethyl-3-(thiophen-2-ylmethyl)indolizin-1-yl)glyoxylamide], the IC50 was 11 nM.

`CCc1c(C(=O)C(N)=O)c2c(OCC(=O)O)cccn2c1Cc1cccc(OC)c1` [Compound 52m, 2-(2-Ethyl-8-(carboxymethyloxy)-3-(m-methoxybenzyl)indolizine-1-yl)glyoxylamide]: the IC50 came to 21 nM.

Take `CCc1c(C(=O)C(N)=O)c2c(OCC(=O)O)cccn2c1Cc1ccccc1[N+](=O)[O-]` [Compound 52n, 2-(2-Ethyl-8-(carboxymethyloxy)-3-(o-nitrobenzyl)indolizine-1-yl)glyoxylamide]: the IC50 amounted to 36 nM.

As for `CCCCCC1CCC(Cc2c(CC)c(C(=O)C(N)=O)c3c(OCC(=O)O)cccn23)CC1` (stereo not drawn) [Compound 52o, 2-(8-(Carboxymethyloxy)-2-ethyl-3-(4-n-pentylcyclohexylmethyl)indolizin-1-yl)glyoxylamide], the IC50 is 25 nM.

Consider `NC(=O)C(=O)c1c(C2CC2)c(Cc2ccccc2)n2cccc(OCC(=O)O)c12` [Compound 52r, 2-(3-Benzyl-8-carboxymethyloxy-2-cyclopropylindolizin-1-yl)-glyoxylamide], for which the IC50 was determined as 46 nM.

As to `CCCCc1ccc(Cc2c(CC)c(C(=O)C(N)=O)c3c(OCC(=O)O)cccn23)cc1` [Compound 52s, 2-(3-(p-n-Butylbenzyl)-8-(carboxymethyloxy)-2-ethylindolizin-1-yl)glyoxylamide], the IC50 worked out at 11 nM.

On to `NC(=O)C(=O)c1c(C2CC2)c(CC2CCCC2)n2cccc(OCC(=O)O)c12` [Compound 52v, 2-(8-(Carboxymethyloxy)-3-cyclopentylmethyl-2-cyclopropylindolizin-1-yl)glyoxylamide], for which the half-maximal inhibitory concentration (IC50) was 29 nM.

Consider `Cc1c(C(=O)C(N)=O)c2c(OCC(=O)O)cccn2c1CC1CCCC1` [Compound 52w, 2-(8-(Carboxymethyloxy)-3-cyclopentylmethyl-2-methylindolizin-1-yl)glyoxylamide], for which the half-maximal inhibitory concentration (IC50) came to 14 nM.

`CCc1c(C(=O)C(N)=O)c2c(OCC(=O)OC)cccn2c1Cc1cccc(-c2ccccc2)c1` [Compound 57g, 2-(8-Carbomethoxymethyloxy-2-ethyl-3-(m-phenylbenzyl)indlolin-1-yl)glyoxylamide]: the IC50 was determined as 80 nM.

Take `COC(=O)COc1cccn2c(Cc3cccc4ccccc34)c(C3CC3)c(C(=O)C(N)=O)c12` [Compound 57j, 2-(8-Carbomethoxymethyloxy-2-cyclopropyl-3-(1-naphthylmethyl)indlolin-1-yl)glyoxylamide]: the IC50 turned out to be 790 nM.

On to `Cc1c(C(=O)C(N)=O)c2c(OCC(=O)O)cccn2c1Cc1ccccc1-c1ccccc1` [Compound 58a, 2-(3-(Biphenyl-2-ylmethyl)-8-carboxymethoxyl-2-methylindolizin-1-yl)glyoxylamide], for which the IC50 was 8 nM.

Regarding `CC(C)c1c(C(=O)C(N)=O)c2c(OCC(=O)O)cccn2c1Cc1ccccc1-c1ccccc1` [Compound 58c], the half-inhibitory concentration (IC50) came out at 35 nM.

As for `CCc1c(C(=O)C(N)=O)c2c(OCC(=O)OC(C)OC(=O)OC)cccn2c1Cc1ccccc1-c1ccccc1` (stereo not drawn) [Compound 59b, 2-(3-Biphenyl-2-ylmethyl-8-(1-methoxycarbonyloxyethoxycarbonylmethoxy)-2-ethylindolizin-1-yl)glyoxylamide], the half-maximal inhibitory concentration (IC50) is 11 nM.

Regarding `CCc1c(C(=O)C(N)=O)c2c(OCC(=O)OC(C)OC(=O)OC(C)C)cccn2c1Cc1ccccc1-c1ccccc1` (stereo not drawn) [Compound 59c, 2-(3-Biphenyl-2-ylmethyl-2-ethyl-8-(1-isopropyloxycarbonyloxyethoxycarbonylmethoxy)indolizin-1-yl)glyoxylamide], the IC50 is 46 nM.

Turning to `CCc1c(C(=O)C(N)=O)c2c(OCC(=O)OC(C)C(=O)OC3CCCCC3)cccn2c1Cc1ccccc1-c1ccccc1` (stereo not drawn) [Compound 59e], the IC50 stood at 55 nM.

Regarding `CCc1c(C(=O)C(N)=O)c2c(OCC(=O)OCCC(=O)OC3(C)CCCC3)cccn2c1Cc1ccccc1-c1ccccc1` [Compound 59h, 2-(3-Biphenyl-2-ylmethyl-2-ethyl-8-(1-methylcyclopentyloxycarbonylethyloxycarbonyl-methyloxy)-indolizin-1-yl)glyoxylamide], the IC50 came out at 61 nM.

For the molecule `CCc1c(C(=O)C(N)=O)c2c(OCc3nnnn3C(c3ccccc3)(c3ccccc3)c3ccccc3)cccn2c1Cc1ccccc1-c1ccccc1` [Compound 59l, 2-(3-(Biphenyl-2-yl-methyl)-2-ethyl-8-(1-tritytretrazol(-5-yl)methyloxy)indolizine-1-yl)glyoxylamide], the IC50 is 110 nM.

As for `CCc1c(C(=O)C(N)=O)c2cc(OCCCC(=O)O)ccn2c1Cc1ccccc1` [Compound 67a, 2-(3-Benzyl-7-(3-carboxylpropyloxy)-2-ethylindolizin-1-yl)glyoxylamide], the IC50 came to 200 nM.

Consider `CCc1c(C(=O)C(N)=O)c2cc(OCCCC(=O)O)ccn2c1Cc1ccccc1-c1ccccc1` [Compound 67c, 2-(7-(3-Carboxypropyloxy)-2-ethyl-3-(o-phenylbenzyl)indolizin-1-yl)glyoxylamide], for which the IC50 was found to be 140 nM.

As to `CCc1c(C(=O)C(N)=O)c2c(OCCC(=O)O)cccn2c1Cc1ccccc1-c1ccccc1` [Compound 70a, 2-(3-(Biphenyl-2-yl-methyl)-8-(carboxyethyloxy)-2-ethylindolizine-1-yl)glyoxylamide], the IC50 turned out to be 44 nM.

`CCc1c(C(=O)C(N)=O)c2cc(OCCC(=O)O)ccn2c1Cc1ccccc1-c1ccccc1` [Compound 70b]: the IC50 stood at 240 nM.

On to `CCOC(=O)CCCOc1ccn2c(Cc3ccccc3-c3ccccc3)c(CC)c(CC(N)=O)c2c1` [Compound 71a, 2-(7-(3-Carbethoxypropyloxy)-2-ethyl-3-(o-phenylbenzyl)indolizin-1-yl)acetamide], for which the 50% inhibitory concentration (IC50) was determined as 600 nM.

`COC(=O)COc1cccn2c(Cc3ccccc3-c3ccccc3)c(SC)c(C(=O)C(N)=O)c12` [Compound 82, 2-(8-(Carbomethoxymethyloxy)-2-methylthio-3-(o-phenylbenzyl)indolizin-1-yl)glyoxylamide]: the IC50 was found to be 120 nM.
